The values below come from US9873705B2, “Vinylogous thioester compounds and methods of use” (THE TRUSTEES OF DARTMOUTH COLLEGE, priority 2015, dated 2018).

Assay [1] deals with NF1 deficient cells compared to NF1 wild type cells. Briefly: Bafilomycin A1 dose response curve. In kind it is cell-based. The note with it: representative of two replicates. From the text: This graph is representative of two replicates.
Assay [2] deals with p62 and LC3B protein expression in U87-MG cells. Briefly: Western blot of autophagy markers p62 and LC3B. In kind it is cell-based, human. The following applies: U87-MG, Western blot, 2 μM Y102, 50 μM HCQ. From the text:
Ras dysregulated tumors depend on autophagy to remove damaged mitochondria and allow for their survival. […] LC3B I is lipidated to form LC3B II following induction of autophagy. LC3B II is recruited and subsequently integrated into the autophagosome. p62 functions as an adaptor protein in autophagy by binding to both ubiquitin-labeled damaged cargo such as protein aggregates or mitochondria and LC3B II to facilitate cargo uptake into the autophagosome. Degradation of the cargo occurs when the autophagosome fuses with the lysosome; when autophagy is inhibited with hydroxychloroquine (HCQ), a drug that prevents acidification of the lysosome, both LC3B II and p62 accumulate as derogation of the autophagosome is prevented, making them valuable markers of autophagic flux.
The data for FIG. 4 was obtained as follows: U87-MG cells were plated in 6-well plates at a concentration of 500,000 cells/well and allowed to adhere overnight. Cells were treated for 12 h with either DMSO or 2 μM Y102, followed by an additional 12 h co-treatment with or without 50 μM HCQ. Following treatment, cells were harvested using 0.25% trypsin, rinsed with PBS, and lysed with 75 μL modified RIPA buffer (50 mM NaCl, 1% v/v nonidet P40, 0.5% w/v sodium deoxycholate, 0.05% w/v sodium dodecyl sulfate, 50 mM Tris pH 8.0) containing 1 mM NaVO4, 1 mM NaF, 1 mM phenylmethylsulfonyl fluoride, 0.1 μg/mL leupeptin, 100 μM benzamidine HCl, 1 μM aprotinin, 0.1 μg/mL soybean trypsin inhibitor, 0.1 μg/mL pepstatin, and 0.1 μg/mL antipain. Protein was quantified using a BCA assay kit (Pierce). 40 μg of protein prepared in 1× Laemmli sample buffer (50 mM Tris pH 6.8, 0.02% w/v bromophenol blue, 2% w/v sodium dodecyl sulfate, 10% v/v glycerol, 1% v/v beta-mercaptoethanol, 12.5 mM EDTA) was separated on a 4-15% polyacrylamide gel using sodium dodecyl sulfate-polyacrylamide gel electrophoresis. Protein was transferred to nitrocellulose membrane, blocked in 5% nonfat milk in TBST, and probed with primary antibodies anti-LC3BI/II (Cell Signaling, 1:1000, overnight at 4° C.), anti-p62/SQSTM-1 D-3 (Santa Cruz, 1:1000, 1 h at room temperature), or anti-α-tubulin B-1-2-5 (Santa Cruz, 1:10000, 1 h at room temperature) in 2% nonfat milk in TBST. Blots were incubated in 1:20,000 anti-rabbit HRP or 1:10,000 anti-mouse HRP secondary antibodies diluted in 2% nonfat milk in TBST for 1 h at room temperature. Film was exposed to standard ECL (Pierce)-coated blots and developed using a standard film processor.
(Immunoblotting shows a protein as a band on a membrane.)

Molecules are shown by their SMILES.

As to `CO/C1=C\C(C)=C\[C@@H](C)[C@@H](O)[C@@H](C)C/C(C)=C/C=C/[C@H](OC)[C@@H]([C@@H](C)[C@@H](O)[C@H](C)[C@@]2(O)C[C@@H](O)[C@H](C)[C@@H](C(C)C)O2)OC1=O` [Bafilomycin A1], in assay [1], the “sensitivity of NF1 deficient vs NF1 wild type cells” value is recorded as “selectively sensitive”.

Turning to `CCN(CCO)CCCC(C)Nc1ccnc2cc(Cl)ccc12` (stereo not drawn) [HCQ, hydroxychloroquine, reference compound], in assay [2] (24 hours), the “p62 accumulation (autophagy marker)” value was “accumulation of p62”. For the same molecule, the “LC3B I/II conversion (LC3B II accumulation)” value in assay [2] (single agent) is given as “LC3B I/II conversion as seen”.
